Read-outs that look alike come from different tables or passages of the source.
Experiments:
[1] = cited from earlier work
[2] = test system: plasma ACTH; assay: Fasting plasma ACTH during mifepristone alone and plus ketoconazole; format: in vivo, human; settings: day 13, predose, after mifepristone 600 mg alone
[3] = clinical; settings: male, human, in vivo, 600 mg
[4] = test system: serum cortisol; assay: Fasting serum cortisol during mifepristone alone and plus ketoconazole; format: in vivo, human; settings: day 13, predose, after mifepristone 600 mg alone
[5] = with concomitant ketoconazole 200 mg twice daily vs mifepristone 600 mg alone
[6] = test system: glucocorticoid receptor; settings: cited from earlier work
[7] = Safety and tolerability; format: in vivo, human
[8] = clinical; settings: male, human, in vivo
[9] = male, human, in vivo

CC#C[C@]1(O)CC[C@H]2[C@@H]3CCC4=CC(=O)CCC4=C3[C@@H](c3ccc(N(C)C)cc3)C[C@@]21C [Mifepristone]
half-life [1]: ~ 85 h
Mean ACTH [2]: 148 pg/mL
half-life [3]: > 64 h
Mean serum cortisol [4]: 41.9 µg/dL
increase in systemic exposure based on GMR, AUC0–24 [5]: 38%
affinity to the glucocorticoid receptor compared with 100% for mifepristone [6]: 100%
subjects with at least one treatment-emergent AE ([7]; coadministration of mifepristone and ketoconazole (period 2), 8/14): 57.1%
subjects with at least one treatment-emergent AE ([7]; mifepristone alone (period 1), 9/16): 56.3%
serious AEs ([7]; whole study, mifepristone alone and plus ketoconazole): No serious AEs

CC(=O)N1CCN(c2ccc(OCC3COC(Cn4ccnc4)(c4ccc(Cl)cc4Cl)O3)cc2)CC1 (stereo not drawn) [Ketoconazole]
Tmax ([8]; 200 mg): 3 h
AUC(0-t) ([8]; AUC (AUC0–12) GLSM): 37700 ng·h/mL
Mean predose trough concentrations [9]: 1353.07 to 1615.64 ng/mL

— PMC5656713 (Advances in Therapy, 2017)
